Measurements taken from patent US11986471B2, “Compounds and methods of use” (Tango Therapeutics, Inc., priority 2018, dated 2024).

Columns and labels:
[1] = target: T1, PRMT5 (Homo sapiens, UniProt O14744); experiment: PRMT5 IC50 assay with no cofactor; assay type: biochemical; details: read-out: No Co-factor IC50
T1 construct: purchased Viva (custom protein)
How it was run: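 Ki conversion: SAM arm, Ki=IC50/1.5; MTA arm, Ki=IC50/13.5. No-cofactor arm reported as IC50 only. Selectivity expressed as Ki(SAM)/Ki(MTA).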

[2] = test system: HAP1 MTAP-deleted; experiment: SDMA in-cell western assay, HAP1 MTAP-deleted cell line; assay type: cell-based; details: for IC50: Homo sapiens, HAP1 MTAP-deleted cell line; for MTAP Intact/Deleted Ratio: IC50 ratio HAP1 MTAP-intact / HAP1 MTAP-deleted
Description: (§1) Table 1a also indicates IC50 values in an MTAP-isogenic cell line pair for exemplary compounds in an SDMA in-cell western assay (columns 7-8). HAP1 MTAP-intact is a cell line in which endogenous levels of MTAP are expressed, and HAP1 MTAP-deleted is an MTAP-null cell line.

[3] = target: T1, PRMT5; experiment: PRMT5 IC50 assay in the presence of MTA as cofactor; assay type: biochemical; details: for IC50: PRMT5, MTA as cofactor; for SAM/MTA Ratio: ratio between Ki in the presence of SAM and Ki in the presence of MTA
How it was run: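 Three cofactor conditions tested for PRMT5 inhibition: none, MTA and SAM, each giving an IC50. For conversion to Ki, the MTA-condition IC50 is divided by 13.5 and the SAM-condition IC50 by 1.5, and the two Ki values are expressed as a SAM/MTA ratio.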

[4] = target: T1, PRMT5; experiment: PRMT5 IC50 assay in the presence of SAM as cofactor; assay type: biochemical
How it was run: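 Enzyme: human PRMT5. Conditions: plus SAM, plus MTA, or cofactor-free. Output: IC50 (μM); Ki via IC50/1.5 (SAM) or IC50/13.5 (MTA).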

[5] = test system: HAP1 MTAP-intact; experiment: SDMA in-cell western assay, HAP1 MTAP-intact cell line; assay type: cell-based; details: Homo sapiens
Description: as §1, with “line. […] Compounds with a ratio in the SDMA in-cell western assay of equal to or greater than 3 fold are considered MTAP-selective.” for “line.”

T1 sequence (O14744 whole entry): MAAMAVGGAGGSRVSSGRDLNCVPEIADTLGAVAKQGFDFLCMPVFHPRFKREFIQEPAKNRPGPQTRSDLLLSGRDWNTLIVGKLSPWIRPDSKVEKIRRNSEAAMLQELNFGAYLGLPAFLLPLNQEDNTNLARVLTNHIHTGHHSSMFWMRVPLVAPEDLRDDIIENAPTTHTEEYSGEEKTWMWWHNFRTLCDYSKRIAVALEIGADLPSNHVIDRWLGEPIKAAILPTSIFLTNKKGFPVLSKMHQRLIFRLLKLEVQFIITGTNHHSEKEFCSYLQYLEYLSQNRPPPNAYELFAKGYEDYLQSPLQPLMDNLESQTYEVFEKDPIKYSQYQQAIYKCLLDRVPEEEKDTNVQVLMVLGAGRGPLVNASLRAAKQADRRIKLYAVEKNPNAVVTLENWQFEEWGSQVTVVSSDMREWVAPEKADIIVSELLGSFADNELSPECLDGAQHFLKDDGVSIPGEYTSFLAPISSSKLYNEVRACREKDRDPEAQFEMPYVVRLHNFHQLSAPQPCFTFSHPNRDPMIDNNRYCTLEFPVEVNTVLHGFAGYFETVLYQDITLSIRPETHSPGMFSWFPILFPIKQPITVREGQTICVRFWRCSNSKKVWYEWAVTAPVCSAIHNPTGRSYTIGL
T1 sequence (Q9BQA1 whole entry partner): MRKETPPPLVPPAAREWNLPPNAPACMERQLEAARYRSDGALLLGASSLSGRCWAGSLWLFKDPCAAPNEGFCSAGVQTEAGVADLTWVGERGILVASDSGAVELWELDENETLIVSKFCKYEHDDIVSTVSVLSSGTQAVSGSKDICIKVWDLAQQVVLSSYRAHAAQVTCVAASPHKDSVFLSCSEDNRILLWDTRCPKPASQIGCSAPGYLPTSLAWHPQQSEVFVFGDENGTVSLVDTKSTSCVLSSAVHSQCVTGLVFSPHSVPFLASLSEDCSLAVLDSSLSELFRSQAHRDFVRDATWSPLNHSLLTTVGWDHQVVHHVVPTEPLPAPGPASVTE

IC50 [1] [nM]	IC50 [2] [nM]	IC50 [3] [nM]	IC50 [4] [nM]	IC50 [5] [nM]	SMILES	MTAP Intact/Deleted Ratio [2]	SAM/MTA Ratio [3]
500 to 5000	< 1000	50 to 500	50 to 500	1000 to 10000	CC(=O)N1CCC(Nc2cc(C(=O)NC[C@H](O)CN3CCc4cc(OCc5cn[nH]c5)ccc4C3)ncn2)CC1 [Compound 201, 6-[(1-acetyl-4-piperidyl)amino]-N-[(2S)-2-hydroxy-3-[6-(1H-pyrazol-4-ylmethoxy)-3,4-dihydro-1H-isoquinolin-2-yl]propyl]pyrimidine-4-carboxamide]	C* (an IC50 ratio of less than 3 fold between the IC50 in the HAP1 MTAP-intact cell line and the HAP1 MTAP-deleted cell line)	A (a Ki ratio greater than or equal to 10 fold between the Ki in the presence of SAM and the Ki in the presence of MTA)
≥ 5000	≥ 10000	500 to 5000	500 to 5000	≥ 10000	CC(=O)N1CCC(Nc2cc(C(=O)NC[C@H](O)CN3CCc4c(ccc(OCc5ccnn5C)c4C)C3)ncn2)CC1 [Compound 203]	C* (an IC50 ratio of less than 3 fold between the IC50 in the HAP1 MTAP-intact cell line and the HAP1 MTAP-deleted cell line)	A (a Ki ratio greater than or equal to 10 fold between the Ki in the presence of SAM and the Ki in the presence of MTA)
≥ 5000	< 1000	500 to 5000	500 to 5000	< 1000	O=C(NC[C@H](O)CN1CCc2cc(OCc3c[nH]nn3)ccc2C1)c1ccnc(NC2CCC2)c1 [Compound 207, (S)—N-(3-(6-((1H-1,2,3-triazol-4-yl)methoxy)-3,4-dihydroisoquinolin-2(1H)-yl)-2-hydroxypropyl)-2-(cyclobutylamino)isonicotinamide]	C* (an IC50 ratio of less than 3 fold between the IC50 in the HAP1 MTAP-intact cell line and the HAP1 MTAP-deleted cell line)	A (a Ki ratio greater than or equal to 10 fold between the Ki in the presence of SAM and the Ki in the presence of MTA)
≥ 5000	< 1000	50 to 500	50 to 500	1000 to 10000	CC(=O)N1CCC(Nc2cc(C(=O)NC[C@H](O)CN3CCc4cc(OCc5ocnc5C)ccc4C3)ncn2)CC1 [Compound 219, (S)-6-((1-acetylpiperidin-4-yl)amino)-N-(2-hydroxy-3-(6-((4-methyloxazol-5-yl)methoxy)-3,4-dihydroisoquinolin-2(1H)-yl)propyl)pyrimidine-4-carboxamide]	B* (an IC50 ratio greater than or equal to 3 fold but lower than 10 fold between the IC50 in the HAP1 MTAP-intact cell line and the HAP1 MTAP-deleted cell line)	A (a Ki ratio greater than or equal to 10 fold between the Ki in the presence of SAM and the Ki in the presence of MTA)
≥ 5000	1000 to 10000	50 to 500	50 to 500	≥ 10000	CC(=O)N1CCC(Nc2cc(C(=O)NC[C@H](O)CN3CCc4cc(OCc5conc5C)ccc4C3)ncn2)CC1 [Compound 233, (S)-6-((1-acetylpiperidin-4-yl)amino)-N-(2-hydroxy-3-(6-((3-methylisoxazol-4-yl)methoxy)-3,4-dihydroisoquinolin-2(1H)-yl)propyl)pyrimidine-4-carboxamide]	C* (an IC50 ratio of less than 3 fold between the IC50 in the HAP1 MTAP-intact cell line and the HAP1 MTAP-deleted cell line)	A (a Ki ratio greater than or equal to 10 fold between the Ki in the presence of SAM and the Ki in the presence of MTA)
500 to 5000	1000 to 10000	50 to 500	50 to 500	≥ 10000	CC(=O)N1CCC(Nc2cc(C(=O)NC[C@H](O)CN3CCc4c(ccc(OCc5cnco5)c4Cl)C3)ncn2)CC1 [Compound 241, (S)-6-((1-acetylpiperidin-4-yl)amino)-N-(3-(5-chloro-6-(oxazol-5-ylmethoxy)-3,4-dihydroisoquinolin-2(1H)-yl)-2-hydroxypropyl)pyrimidine-4-carboxamide]	C* (an IC50 ratio of less than 3 fold between the IC50 in the HAP1 MTAP-intact cell line and the HAP1 MTAP-deleted cell line)	A (a Ki ratio greater than or equal to 10 fold between the Ki in the presence of SAM and the Ki in the presence of MTA)
≥ 5000	≥ 10000	500 to 5000	500 to 5000	≥ 10000	CC(=O)N1CCC(Nc2cc(C(=O)NC[C@H](O)CN3CCc4c(ccc(OCc5ccnn5C)c4Cl)C3)ncn2)CC1 [Compound 242, (S)-6-((1-acetylpiperidin-4-yl)amino)-N-(3-(5-chloro-6-((1-methyl-1H-pyrazol-5-yl)methoxy)-3,4-dihydroisoquinolin-2(1H)-yl)-2-hydroxypropyl)pyrimidine-4-carboxamide]	C* (an IC50 ratio of less than 3 fold between the IC50 in the HAP1 MTAP-intact cell line and the HAP1 MTAP-deleted cell line)	
≥ 5000	≥ 10000	500 to 5000	500 to 5000	≥ 10000	CC(=O)N1CCC(Nc2cc(C(=O)NC[C@@H](O)CN3CCc4cc(OCc5ocnc5C)ccc4C3)ncn2)CC1 [Compound 249, (R)-6-((1-acetylpiperidin-4-yl)amino)-N-(2-hydroxy-3-(6-((4-methyloxazol-5-yl)methoxy)-3N-dihydroisoquinolin-2(1H)-yl)propyl)pyrimidine-4-carboxamide]	C* (an IC50 ratio of less than 3 fold between the IC50 in the HAP1 MTAP-intact cell line and the HAP1 MTAP-deleted cell line)	A (a Ki ratio greater than or equal to 10 fold between the Ki in the presence of SAM and the Ki in the presence of MTA)
≥ 5000	≥ 10000	500 to 5000	500 to 5000	≥ 10000	CC(=O)N1CCC(Nc2cc(C(=O)NC[C@H](O)CN3CCc4cc(OCc5cnnn5C)ccc4C3)ncn2)CC1 [Compound 250, (S)-6-((1-acetylpiperidin-4-yl)amino)-N-(2-hydroxy-3-(6-((1-methyl-1H-1,2,3-triazol-5-yl)methoxy)-3,4-dihydroisoquinolin-2(1H)-yl)propyl)pyrimidine-4-carboxamide]	C* (an IC50 ratio of less than 3 fold between the IC50 in the HAP1 MTAP-intact cell line and the HAP1 MTAP-deleted cell line)	A (a Ki ratio greater than or equal to 10 fold between the Ki in the presence of SAM and the Ki in the presence of MTA)
≥ 5000	≥ 10000	500 to 5000	500 to 5000	≥ 10000	CC(=O)N1CCC(Nc2cc(C(=O)NC[C@H](O)CN3CCc4c(ccc(OCc5conc5C)c4Cl)C3)ncn2)CC1 [Compound 251, (S)-6-((1-acetylpiperidin-4-yl)amino)-N-(3-(5-chloro-6-((3-methylisoxazol-4-yl)methoxy)-3N-dihydroisoquinolin-2(1H)-yl)-2-hydroxypropyl)pyrimidine-4-carboxamide]	C* (an IC50 ratio of less than 3 fold between the IC50 in the HAP1 MTAP-intact cell line and the HAP1 MTAP-deleted cell line)	
≥ 5000	1000 to 10000	50 to 500	50 to 500	≥ 10000	Cc1ncoc1COc1ccc2c(c1Cl)CCN(C[C@@H](O)CNC(=O)c1ccnc(NC3CCC3)c1)C2 [Compound 252, (S)—N-(3-(5-chloro-6-((4-methyloxazol-5-yl)methoxy)-3,4-dihydroisoquinolin-2(1H)-yl)-2-hydroxypropyl)-2-(cyclobutylamino)isonicotinamide]	C* (an IC50 ratio of less than 3 fold between the IC50 in the HAP1 MTAP-intact cell line and the HAP1 MTAP-deleted cell line)	A (a Ki ratio greater than or equal to 10 fold between the Ki in the presence of SAM and the Ki in the presence of MTA)
500 to 5000	1000 to 10000	50 to 500	500 to 5000	1000 to 10000	CC(=O)N1CCC(Nc2cc(C(=O)NC[C@H](O)CN3CCc4c(ccc(OCc5cn[nH]c5)c4C)C3)ncn2)CC1 [Compound 253, 6-[(1-acetyl-4-piperidyl)amino]-N-[(2S)-2-hydroxy-3-[5-methyl-6-(1H-pyrazol-4-ylmethoxy)-3,4-dihydro-1H-isoquinolin-2-yl]propyl]pyrimidine-4-carboxamide]	C* (an IC50 ratio of less than 3 fold between the IC50 in the HAP1 MTAP-intact cell line and the HAP1 MTAP-deleted cell line)	A (a Ki ratio greater than or equal to 10 fold between the Ki in the presence of SAM and the Ki in the presence of MTA)
